Data taken from ChEMBL document CHEMBL4000210, “Mitigation of reactive metabolite formation for a series of 3-amino-2-pyridone inhibitors of Bruton's tyrosine kinase (BTK)” (Bioorg Med Chem Lett, 2017).

Experiments:
Type in all cases: ADME, microsome
Liver [1] = experiment: Drug metabolism in human liver microsomes assessed as covalent binding per mg protein at 10 uM preincubated for 5 mins followed by NADPH addition measured after 30 mins by liquid scintillation counting; settings: 0.5 h
Liver [2] = experiment: Drug level in human liver microsomes treated with 6-tert-butyl-8-fluoro-2-(2-(hydroxymethyl)-3-(1-methyl-5-(5-(methylsulfonyl)pyridin-2-ylamino)-6-oxo-1,6-dihydropyridin-3-yl)phenyl)phthalazin-1(2H)-one by UPLC-MS/MS method
Liver [3] = experiment: Drug metabolism in human liver microsomes assessed as covalent binding per mg protein at 10 uM in absence of NADPH measured after 30 mins by liquid scintillation counting; settings: 0.5 h

Compound	Drug metabolism (Liver [1]) [pmol]	Drug metabolism (Liver [2])	Drug metabolism (Liver [3]) [pmol]
Cn1nc(-c2cccc(-n3ncc4cc(C(C)(C)C)cc(F)c4c3=O)c2[14CH2]O)cc(Nc2ccc(C(=O)N3CCOCC3)cn2)c1=O	26	–	–
Cn1cc(-c2cccc(-n3ncc4cc(C(C)(C)C)cc(F)c4c3=O)c2[14CH2]O)cc(Nc2ccc(C(=O)N3CCOCC3)cn2)c1=O	294	–	–
Cn1cc(-c2cccc(-n3ncc4cc(C(C)(C)C)cc(F)c4c3=O)c2[14CH2]O)cc(Nc2ccc(S(C)(=O)=O)cn2)c1=O	386	–	–
Cn1cc(-c2cccc(N3CCc4cc(C(C)(C)C)ccc4C3=O)c2[14CH2]O)cc(Nc2ccc(C(=O)N3CCOCC3)cn2)c1=O	422	–	–
CN1C(=O)/C(=N/c2ccc(S(C)(=O)=O)cn2)C=C(c2cccc(-n3ncc4cc(C(C)(C)C)cc(F)c4c3=O)c2CO)C1SC[C@H](NC(=O)CC[C@H](N)C(=O)O)C(=O)NCC(=O)O (stereo not given in full)	–	Metabolite_Detected	–
CN(C)c1ccc2c(c1)CCN(c1cccc(-c3cc(Nc4ccc(C(=O)N5CCOCC5)cn4)c(=O)n(C)c3)c1[14CH2]O)C2=O	52	–	–
CN1CCN(c2ccc(Nc3cc(-c4cccc(-n5ncc6cc(C(C)(C)C)cc(F)c6c5=O)c4[14CH2]O)cn(C)c3=O)nc2)CC1	459	–	49
CN1C(=O)/C(=N/c2ccc(S(C)(=O)=O)cn2)C=C(c2cccc(-n3ncc4cc(C(C)(C)CO)cc(F)c4c3=O)c2CO)C1SC[C@H](NC(=O)CC[C@H](N)C(=O)O)C(=O)NCC(=O)O (stereo not given in full)	–	Metabolite_Detected	–
CN1CCN(c2ccc(Nc3cc(-c4cccc(-n5ccc6cc(C7CC7)cc(F)c6c5=O)c4CO)cn(C)c3=O)nc2)CC1	294	–	–
